# Measured values taken from the supplement of paper PMC10307832.
# How the values were obtained:
# Assay in all cases: relative viability (nuclei count vs DMSO), 5 days (fraction); higher = more cells survive
# [1] = compound: C1CC1C(=O)NC2=NNC3=C2C=CC(=C3)C4=CC(=CC=C4)C(=O)NC5CC5 [XMD13-2] + C[C@@H](Oc1cc(-c2cnn(C3CCNCC3)c2)cnc1N)c1c(Cl)ccc(F)c1Cl [Crizotinib] (partner 1 µM)
# How it was run: (§1)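 Lung cancer cell lines, seeded in 1536-well plates, were treated the following day by pin tool with a single drug or with five library-drug doses (not always all listed) in √10 steps on top of a fixed anchor-drug dose. Cells were fixed and nuclei stained in one step after 5 days, and nuclei were counted. Relative viability is the nuclei count for treated wells divided by that for vehicle wells, reported as medians of duplicate plates.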
# [2] = compound: C1CC1C(=O)NC2=NNC3=C2C=CC(=C3)C4=CC(=CC=C4)C(=O)NC5CC5 [XMD13-2] + CC(=O)Nc1cccc(-n2c(=O)n(C3CC3)c(=O)c3c(Nc4ccc(I)cc4F)n(C)c(=O)c(C)c32)c1 [Trametinib] (partner 0.02 µM)
# How it was run: as §1
# [3] = compound: C1CC1C(=O)NC2=NNC3=C2C=CC(=C3)C4=CC(=CC=C4)C(=O)NC5CC5 [XMD13-2] + CC(C)C[C@H](NC(=O)[C@H](Cc1ccccc1)NC(=O)c1cnccn1)B(O)O [Bortezomib] (partner 0.002 µM)
# How it was run: as §1
# [4] = compound: Cc1ccc(C(=O)Nc2cccc(C(F)(F)F)c2)cc1Nc1cncc(C(N)=O)c1 [ALW-II-49-7] + CS(=O)(=O)N1CCN(Cc2cc3nc(-c4cccc5[nH]ncc45)nc(N4CCOCC4)c3s2)CC1 [Pictilisib] (partner 1 µM)
# How it was run: as §1
Cell Line,relative viability ([1]; first compound 0.05 µM),relative viability ([1]; first compound 0.1581 µM),relative viability ([1]; first compound 0.5 µM),relative viability ([1]; first compound 1.581 µM),relative viability ([1]; first compound 5 µM),relative viability ([2]; first compound 0.05 µM),relative viability ([2]; first compound 0.1581 µM),relative viability ([2]; first compound 0.5 µM),relative viability ([2]; first compound 1.581 µM),relative viability ([2]; first compound 5 µM),relative viability ([3]; first compound 0.05 µM),relative viability ([3]; first compound 0.1581 µM),relative viability ([3]; first compound 0.5 µM),relative viability ([3]; first compound 1.581 µM),relative viability ([3]; first compound 5 µM),relative viability ([4]; first compound 0.08 µM),relative viability ([4]; first compound 0.253 µM),relative viability ([4]; first compound 0.8 µM),relative viability ([4]; first compound 2.53 µM),relative viability ([4]; first compound 8 µM)
NCI-H727,0.938,0.697,1,0.771,0.687,0.401,0.431,0.37,0.382,0.38,0.996,0.936,0.792,0.982,1.03,0.511,0.415,0.267,0.432,0.292
ABC-1,1.4,1.41,1.16,1.03,0.675,,,,,,0.331,0.319,0.261,0.289,0.296,0.879,0.761,0.811,0.79,0.689
NCI-H2023,0.738,0.592,0.62,0.556,0.809,0.621,0.54,0.555,0.561,0.633,1.16,0.928,1.06,0.986,0.983,0.244,0.206,0.251,0.221,0.217
NCI-H2342,,,,,,0.766,0.917,0.697,0.912,0.822,,,,,,,,,,
SW 1573,1.11,0.429,0.815,0.668,0.322,0.585,0.53,0.674,0.533,0.536,0.974,1.03,1.03,0.977,0.947,0.475,0.486,0.465,0.47,0.465
NCI-H1993,0.913,0.844,0.935,0.768,0.69,0.563,0.504,0.508,0.507,0.539,1.42,1.08,1.02,0.972,1.04,0.79,1.01,0.746,0.807,0.619
SK-MES-1,1.14,1.06,1.04,0.93,1.02,0.576,0.532,0.508,0.508,0.58,,,,,,0.331,0.48,0.367,0.365,0.397
NCI-H1703,1.11,0.997,0.874,0.422,0.465,,,,,,0.47,0.597,0.407,0.228,0.195,0.239,0.241,0.212,0.203,0.205
NCI-H522,,,,,,0.852,0.688,0.82,0.711,0.759,,,,,,,,,,
NCI-H1563,0.91,0.898,0.77,0.852,1.02,,,,,,0.949,0.908,0.816,0.764,0.86,0.573,0.661,0.643,0.595,0.657
NCI-H1793,,,,,,0.524,0.442,0.407,0.432,0.444,,,,,,0.371,0.333,0.293,0.396,0.286
NCI-H358,0.77,0.546,0.736,0.423,0.324,0.128,0.127,0.132,0.13,0.135,,,,,,0.361,0.401,0.363,0.405,0.456
SW 900,,,,,,0.924,0.943,0.993,0.859,0.881,,,,,,,,,,
IA-LM,0.674,0.794,0.65,0.664,0.528,,,,,,0.907,0.79,0.825,0.829,0.398,0.334,0.281,0.388,0.209,0.288
NCI-H2170,1.27,1.17,1.34,1.19,1.16,0.94,0.929,0.965,0.883,0.95,,,,,,0.25,0.302,0.294,0.317,0.286
EBC-1,0.225,0.208,0.204,0.178,0.199,,,,,,0.61,0.523,0.552,0.531,0.299,0.315,0.316,,0.242,0.244
NCI-H1944,1.42,1.11,1.14,1.35,1.09,0.486,0.393,0.429,0.458,0.411,,,,,,0.314,0.371,0.328,0.364,0.324
LK-2,0.214,0.219,0.25,0.207,0.227,1.1,0.785,0.779,0.583,0.571,,,,,,0.559,0.648,0.508,0.361,0.513
NCI-H1299,1.02,0.954,0.99,0.948,0.904,,,,,,1.02,1.05,1.05,1.05,1.11,0.623,0.78,0.609,0.436,0.311
